From patent US20170296616A1, “METHODS OF TREATING DEPRESSION USING NMDA MODULATORS” (Naurex, Inc., priority 2014, published 2017)
Residues, ends and D or L forms follow the SMILES beside them.

Key:
[1] = test system: patients suffering with refractory depression; settings: cited from earlier work; for change in Hamilton Depression Rating Score: patients with refractory depression; for side effects: reported for the NMDAR antagonists
[2] = test system: subjects with MDD that had responded inadequately to another antidepressant agent; assay: Repeat dose study of adjunctive GLYX-13 in human subjects (randomized withdrawal design); format: in vivo; settings: for reduction of CGI-I score: baseline 4.3-4.6
Procedure: A repeat dose study was conducted on human subjects using adjunctive dosing (patients were currently taking another antidepressant medication). Dose levels of 5 mg/kg and 10 mg/kg were used with weekly or biweekly dose during an initial, stabilization period, as shown in FIGS. 7A and 7B (showing typical design of randomized withdrawal maintenance study). The disposition of the subjects, as indicated in FIGS. 7A and 7B was 144 nonresponders and […], where of the responders (70 patients assigned to weekly dosing, 36 patients assigned to biweekly dosing, 55 patients randomized to placebo). […] The study was blinded to third party raters (HDRS-17) and to clinicians of the treatment group (CGI-S).
Methods. GLYX-13 was administered over 12 weeks to subjects who had responded inadequately to another antidepressant agent. Subjects continued taking the other antidepressant during the entire course of the study. The study was divided into 3 parts. During the first 6 weeks, subjects were randomized to receive GLYX-13 at 5 mg/kg IV or 10 mg/kg IV. Subjects returned to the clinic weekly. If subjects had reached clinical response (HDRS-17 reduced ≧50% from baseline) to GLYX-13 administered the previous week, placebo was administered weekly until relapse (HDRS-17 reduced <50% from baseline). At the 6th week of evaluation, subjects who had achieved response to GLYX-13 at some visit were assigned to weekly or biweekly dosing based on time to relapse during placebo administration and randomized to continue receiving GLYX-13 or placebo (randomized withdrawal) for a subsequent 6 weeks of dosing. At the end of the randomized withdrawal period, subjects received placebo injections for 4 weeks. Subjects were blind to the treatments. Third party evaluators blind to treatment and protocol were utilized. Treatment dose and interval were calculated by an interactive web-based response system based on a mathematical algorithm; site personnel were blinded to treatment.

[3] = cited from earlier work
[4] = test system: long-term potentiation (LTP); assay: Long-term potentiation (LTP) after single or multiple bi-weekly doses (FIG. 3)
[5] = end of randomized withdrawal period, biweekly doses

## C[C@@H]([C@@H](O)c1ccc(O)cc1)N1CCC(O)(c2ccccc2)CC1 [CPC-101,606]
[1]
  change in Hamilton Depression Rating Score: significant reductions
  side effects: reportedly severe

## C[C@@H](O)[C@H](N)C(=O)N1CCC[C@H]1C(=O)N1CCC[C@H]1C(=O)N[C@H](C(N)=O)[C@@H](C)O [GLYX-13] (H-TPPT-NH2)
[2]; FIG. 1, compared with the induction (stabilization) period
  improvements on HDRS scale during the rest period (randomized withdrawal): generally maintained
[2]; FIG. 4, compared with the induction (stabilization) period
  improvements on Bech-6 scale during the rest period (randomized withdrawal): generally maintained
[2]; FIG. 5, Week 7 and Week 13
  improvements on CGI-S scale during the rest period: generally maintained
[2]; assigned to biweekly dosing in the randomized withdrawal period
  subjects that relapsed more slowly: 33%
[2]; assigned to weekly dosing in the randomized withdrawal period
  responders that relapsed within 2 weeks following cessation of GLYX-13: Approximately 67%
[2]; early treatment
  responders that relapsed quickly during early treatment: About two-thirds
  responders that relapsed slowly, even during early treatment: About one-third
[2]; end of randomized withdrawal period, 5 mg/kg IV weekly dose group
  reduction of CGI-I score: 2.5 ± 0.14
[2]; end of randomized withdrawal period, 5 mg/kg weekly group vs biweekly dose groups
  percent of subjects that achieved remission: not statistically different from the biweekly dose groups
[2]; end of randomized withdrawal period, 10 mg/kg IV group
  reduction of CGI-I score: 1.6±0.15
[2]; end of randomized withdrawal period, 10 mg/kg weekly
  subjects that reached remission (HDRS score <=7): 42%
[2]; [5]
  subjects that achieved remission (HDRS score <=7): 45%
  subjects that achieved response: 65%
[2]; end of randomized withdrawal period, biweekly groups
  reduction of CGI-I score: 2.5±0.12
[2]; following 6 weeks of dosing, baseline 23.5±0.34, mean±S.E.M.
  HDRS-17 score in responders: 10.3±0.65
[2]; following 6 weeks of dosing, placebo thereafter
  time after withdrawal of GLYX-13 without return of HDRS-17 score toward baseline: up to 10 weeks
[2]; repeated crossover GLYX-13 / placebo (FIG. 6)
  efficacy following forced relapse: Efficacy was reestablished following forced relapse
[2]; repeated dosing
  side effects with repeated dosing: without significant side effect
  tolerance with repeated dosing: no tolerance apparent
[2]; stabilization phase, 5 or 10 mg/kg, after one dose
  ultimate responders that showed response after one dose: ~65%
[2]; stabilization phase, after three doses
  ultimate responders that showed response after three doses: ~85%
[2]; stabilization phase, after two doses
  ultimate responders that showed response after two doses: ~72%
[3]; compared with other drugs that target the NMDA receptor
  psychotomimetic side effects: lack the pyschotomimetic side effects
[3]; in vivo
  antidepressant activity: rapid-acting, robust, and sustained antidepressant activity
[4]; 24 hours and one week following a single dose
  effect on long-term potentiation (LTP): enhances long-term potentiation
[4]; following multiple bi-weekly doses
  effect on long-term potentiation (LTP): persistently enhances LTP

## CNC1(c2ccccc2Cl)CCCCC1=O (stereo not drawn) [ketamine]
[1]
  change in Hamilton Depression Rating Score: significant reductions
  side effects: reportedly severe
